# Patent publication US20250034216A1, “STEREOSELECTIVE COVALENT LIGANDS FOR ONCOGENIC AND IMMUNOLOGICAL PROTEINS” (The Scripps Research Institute, priority 2021, published 2025)
# Legend:
# CTC1_C584 = molecular target: T1, CTC1_C584 (Homo sapiens, UniProt Q2NKJ3); test: IA-DTB cysteine engagement; type: binding; conditions: 22Rv1 cells, 20 μM probe, 1 h, relative to DMSO
# T1 construct: endogenous in cells; host or cells: 22Rv1
# T1 sequence (Q2NKJ3 1-1217): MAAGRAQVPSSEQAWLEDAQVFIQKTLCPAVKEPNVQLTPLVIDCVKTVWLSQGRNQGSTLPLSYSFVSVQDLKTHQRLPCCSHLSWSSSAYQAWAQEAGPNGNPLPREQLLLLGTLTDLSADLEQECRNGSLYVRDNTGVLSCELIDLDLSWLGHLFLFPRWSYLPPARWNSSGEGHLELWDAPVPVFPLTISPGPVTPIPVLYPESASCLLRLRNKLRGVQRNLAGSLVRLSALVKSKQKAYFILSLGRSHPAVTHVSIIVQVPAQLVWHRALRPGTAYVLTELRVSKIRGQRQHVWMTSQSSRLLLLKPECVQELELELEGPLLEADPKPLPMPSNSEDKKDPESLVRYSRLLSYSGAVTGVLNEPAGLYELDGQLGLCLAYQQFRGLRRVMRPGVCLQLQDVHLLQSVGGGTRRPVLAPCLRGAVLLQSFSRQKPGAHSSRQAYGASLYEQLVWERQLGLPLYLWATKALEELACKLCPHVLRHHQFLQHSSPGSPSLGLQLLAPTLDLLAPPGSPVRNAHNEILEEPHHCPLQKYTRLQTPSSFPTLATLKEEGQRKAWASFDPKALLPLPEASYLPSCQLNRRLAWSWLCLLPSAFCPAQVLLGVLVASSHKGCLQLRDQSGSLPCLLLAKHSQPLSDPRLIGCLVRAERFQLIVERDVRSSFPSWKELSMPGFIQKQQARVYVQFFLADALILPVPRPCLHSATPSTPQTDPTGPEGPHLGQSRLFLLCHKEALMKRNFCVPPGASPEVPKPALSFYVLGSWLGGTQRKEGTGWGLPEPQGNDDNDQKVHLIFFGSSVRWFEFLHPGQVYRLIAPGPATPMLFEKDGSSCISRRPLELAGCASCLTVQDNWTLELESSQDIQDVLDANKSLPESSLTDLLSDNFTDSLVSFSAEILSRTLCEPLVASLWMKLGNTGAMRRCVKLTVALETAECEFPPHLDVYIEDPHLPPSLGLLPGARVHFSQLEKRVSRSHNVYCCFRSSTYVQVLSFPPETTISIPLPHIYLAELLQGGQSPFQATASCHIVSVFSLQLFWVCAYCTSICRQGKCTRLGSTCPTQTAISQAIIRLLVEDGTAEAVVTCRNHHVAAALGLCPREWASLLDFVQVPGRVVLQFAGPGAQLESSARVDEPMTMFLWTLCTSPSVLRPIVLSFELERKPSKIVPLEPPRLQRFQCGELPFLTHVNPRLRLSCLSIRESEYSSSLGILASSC
# Summary of the method: (§1)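 Read-out is TMT-based cysteine engagement, expressed as each reporter ion intensity divided by the average of the DMSO channels. Before that, probe-treated cell lysates were capped with IA-DTB, digested, enriched on streptavidin and TMT-tagged. PSMs with DMSO summed intensity <10,000 or DMSO CV >0.5 were excluded.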
# XXYLT1_C10 = molecular target: T2, XXYLT1_C10 (Homo sapiens, UniProt Q8NBI6); test: IA-DTB cysteine engagement; type: binding; conditions: 22Rv1 cells, 20 μM probe, 1 h, relative to DMSO
# T2 construct: endogenous in cells; host or cells: 22Rv1
# T2 sequence (Q8NBI6 1-393): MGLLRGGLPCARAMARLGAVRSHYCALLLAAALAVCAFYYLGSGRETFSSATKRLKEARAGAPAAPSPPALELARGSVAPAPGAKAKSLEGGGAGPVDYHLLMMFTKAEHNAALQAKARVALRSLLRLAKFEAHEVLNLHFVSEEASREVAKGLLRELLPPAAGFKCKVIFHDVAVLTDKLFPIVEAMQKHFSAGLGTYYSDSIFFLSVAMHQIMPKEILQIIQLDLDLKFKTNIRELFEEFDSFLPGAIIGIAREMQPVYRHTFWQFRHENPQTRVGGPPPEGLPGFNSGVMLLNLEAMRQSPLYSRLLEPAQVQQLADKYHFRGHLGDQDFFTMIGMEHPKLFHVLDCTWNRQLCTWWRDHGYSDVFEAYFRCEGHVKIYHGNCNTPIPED
# Summary of the method: as §1
structure (smiles),measurement,setting,value
"C=CC(=O)N1C[C@@H](c2ccc(Br)cc2)[C@H]1C(=O)Nc1cccc2cccnc12 [MY-1A, (2S,3R)-1-acryloyl-3-(4-bromophenyl)-N-(quinolin-8-yl)azetidine-2-carboxamide]",% engagement CTC1_C584,CTC1_C584,20.25%
same,% engagement XXYLT1_C10,XXYLT1_C10,76.5%
"C=CC(=O)N1C[C@H](c2ccc(Br)cc2)[C@@H]1C(=O)Nc1cccc2cccnc12 [MY-1B, (2R,3S)-1-acryloyl-3-(4-bromophenyl)-N-(quinolin-8-yl)azetidine-2-carboxamide]",% engagement CTC1_C584,CTC1_C584,37.25%
same,% engagement XXYLT1_C10,XXYLT1_C10,77%
"C=CC(=O)N1C[C@H](c2ccc(Br)cc2)[C@H]1C(=O)Nc1cccc2cccnc12 [MY-3A, (2S,3S)-1-acryloyl-3-(4-bromophenyl)-N-(quinolin-8-yl)azetidine-2-carboxamide]",% engagement CTC1_C584,CTC1_C584,23.5%
same,% engagement XXYLT1_C10,XXYLT1_C10,67%
"C=CC(=O)N1C[C@H](c2ccc(Br)cc2)[C@H]1C(=O)Nc1cccc2cccnc12 [MY-3B, (2S,3S)-1-acryloyl-3-(4-bromophenyl)-N-(quinolin-8-yl)azetidine-2-carboxamide]",% engagement CTC1_C584,CTC1_C584,66.25%
same,% engagement XXYLT1_C10,XXYLT1_C10,93%
